Measurements reported in US6355799B1, “Substituted benzene compounds, process for their preparation, and herbicidal and defoliant compositions containing them” (ISK Americas Incorporated, priority 1997, dated 2002).

Experiments:
Format in all cases: in vivo
[1] = system: redroot pigweed (Amaranthus retroflexus, AMARE); assay: Pre-emerge test, greenhouse herbicide activity screening; conditions: rated 14 days after application, 0 = no damage, 100 = complete death
Procedure, shortened: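 Visual ratings on a 0-100 scale (0 no damage, 100 all plants dead) were taken at 14 days after treatment. Rates of 15-1000 g ai/ha in acetone, 187 l/ha, were sprayed onto soil one day after planting (pre-emerge) or onto 2-3 leaf plants with 0.25% v/v surfactant (post-emerge).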

[2] = system: barnyardgrass (Echinochloa crus-galli, ECHCG); assay: as above; conditions: rated 14 days after application, 0 = no damage, 100 = complete death
Procedure, shortened: (§1)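 Plants grown in 10 cm pots of sandy loam mix received acetone-dissolved compounds through a moving flat-fan nozzle. Doses ranged from 15 to 1000 g ai/ha. Pre-emerge pots were seeded one day earlier, post-emerge pots 8–21 days earlier. Fourteen days on, each pot was graded 0–100 for damage.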

[3] = system: common ragweed (Ambrosia artemisizfolia L., AMBEL); assay: as above; conditions: rated 14 days after application, 0 = no damage, 100 = complete death
Procedure, shortened: as §1

[4] = system: green foxtail (Setaria viridis, SETVI); assay: as above; conditions: rated 14 days after application, 0 = no damage, 100 = complete death
Procedure, shortened: as §1

[5] = system: ivyleaf morningglory (Ipomoea hederacea, IPOHE); assay: as above; conditions: rated 14 days after application, 0 = no damage, 100 = complete death
Procedure, shortened: as §1

[6] = system: johnsongrass (Sorghum halepense, SORHA); assay: as above; conditions: rated 14 days after application, 0 = no damage, 100 = complete death
Procedure, shortened: as §1

[7] = system: lambsquarters (Chenopodium album, CHEAL); assay: as above; conditions: rated 14 days after application, 0 = no damage, 100 = complete death
Procedure, shortened: as §1

[8] = system: large crabgrass (Digitaria sanguinalis, DIGSA); assay: as above; conditions: rated 14 days after application, 0 = no damage, 100 = complete death
Procedure, shortened: as §1

[9] = system: sicklepod (Cassia obtusifolia, CASOB); assay: as above; conditions: rated 14 days after application, 0 = no damage, 100 = complete death
Procedure, shortened: as §1

[10] = system: velvetleaf (Abutilon theophrasti, ABUTH); assay: as above; conditions: rated 14 days after application, 0 = no damage, 100 = complete death
Procedure, shortened: as §1

[11] = system: field corn (Zea mays L., var. Dekalb 535, CORN); assay: Pre-emerge test, crop safety; conditions: rated 14 days after application, 0 = no damage, 100 = complete death
Procedure, shortened: (§2)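 Applied at 15–1000 g ai/ha from acetone in 187 l/ha spray volume. Post-emergence applications included 0.25% v/v non-ionic surfactant and reached plants sown 8–21 days before. Pre-emergence applications were incorporated by surface watering. Efficacy or crop damage was rated on a 0–100 scale after 14 days.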

[12] = system: upland rice (Oryza sp., var. Tebonnet, RICE); assay: Pre-emerge test, crop safety; conditions: rated 14 days after application, 0 = no damage, 100 = complete death
Procedure, shortened: as §2

[13] = system: barnyardgrass (Echinochloa crus-galli, ECHCG); assay: Post-emerge test, greenhouse herbicide activity screening; conditions: post-emerge, 14 days after application, rating scale 0-100
Procedure, shortened: (§3)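 Compounds in acetone were track-sprayed at 15–1000 g ai/ha: pre-emergence onto soil sown the previous day, then top-watered to incorporate and later bottom-watered; post-emergence onto 2–3 leaf plants with 0.25% v/v surfactant, bottom-watered only. Ratings on a 0–100 phytotoxicity scale were taken at day 14.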

[14] = system: common ragweed (Ambrosia artemisizfolia L., AMBEL); assay: as above; conditions: post-emerge, 14 days after application, rating scale 0-100
Procedure, shortened: as §3

[15] = system: green foxtail (Setaria viridis, SETVI); assay: as above; conditions: post-emerge, 14 days after application, rating scale 0-100
Procedure, shortened: as §3

[16] = system: ivyleaf morningglory (Ipomoea hederacea, IPOHE); assay: as above; conditions: post-emerge, 14 days after application, rating scale 0-100
Procedure, shortened: as §3

[17] = system: johnsongrass (Sorghum halepense, SORHA); assay: as above; conditions: post-emerge, 14 days after application, rating scale 0-100
Procedure, shortened: as §3

[18] = system: lambsquarters (Chenopodium album, CHEAL); assay: as above; conditions: post-emerge, 14 days after application, rating scale 0-100
Procedure, shortened: as §3

[19] = system: large crabgrass (Digitaria sanguinalis, DIGSA); assay: as above; conditions: post-emerge, 14 days after application, rating scale 0-100
Procedure, shortened: as §3

[20] = system: redroot pigweed (Amaranthus retroflexus, AMARE); assay: as above; conditions: post-emerge, 14 days after application, rating scale 0-100
Procedure, shortened: as §3

[21] = system: sicklepod (Cassia obtusifolia, CASOB); assay: as above; conditions: post-emerge, 14 days after application, rating scale 0-100
Procedure, shortened: as §3

[22] = system: velvetleaf (Abutilon theophrasti, ABUTH); assay: as above; conditions: post-emerge, 14 days after application, rating scale 0-100
Procedure, shortened: as §3

[23] = system: field corn (Zea mays L., var. Dekalb 535, CORN); assay: Post-emerge test, crop safety; conditions: post-emerge, 14 days after application, rating scale 0-100
Procedure, shortened: (§4)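 Each test used a mechanized track sprayer delivering 187 l/ha of acetone solution at 15–1000 g ai/ha. Post-emerge foliage at 2–3 leaves was treated with added 0.25% v/v non-ionic surfactant and bottom-watered only. Injury was assessed on day 14, where 100 means total kill.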

[24] = system: upland rice (Oryza sp., var. Tebonnet, RICE); assay: Post-emerge test, crop safety; conditions: post-emerge, 14 days after application, rating scale 0-100
Procedure, shortened: as §4

COc1ccc(C(=O)Nc2c(OC)c(Cl)cc(F)c2-n2c(=O)cc(C(F)(F)F)n(C)c2=O)cc1 [2-63]
Pre-emerge Herbicidal Activity, phytotoxicity rating (0-100), AMARE ([1]; 63 g ai/ha): 100
Pre-emerge Herbicidal Activity, phytotoxicity rating (0-100), AMARE ([1]; 250 g ai/ha): 100
Pre-emerge Herbicidal Activity, phytotoxicity rating (0-100), ECHCG ([2]; 63 g ai/ha): 95
Pre-emerge Herbicidal Activity, phytotoxicity rating (0-100), ECHCG ([2]; 250 g ai/ha): 100
Pre-emerge Herbicidal Activity, phytotoxicity rating (0-100), AMBEL ([3]; 63 g ai/ha): 100
Pre-emerge Herbicidal Activity, phytotoxicity rating (0-100), AMBEL ([3]; 250 g ai/ha): 100
Pre-emerge Herbicidal Activity, phytotoxicity rating (0-100), SETVI ([4]; 63 g ai/ha): 100
Pre-emerge Herbicidal Activity, phytotoxicity rating (0-100), SETVI ([4]; 250 g ai/ha): 100
Pre-emerge Herbicidal Activity, phytotoxicity rating (0-100), IPOHE ([5]; 63 g ai/ha): 100
Pre-emerge Herbicidal Activity, phytotoxicity rating (0-100), IPOHE ([5]; 250 g ai/ha): 100
Pre-emerge Herbicidal Activity, phytotoxicity rating (0-100), SORHA ([6]; 63 g ai/ha): 90
Pre-emerge Herbicidal Activity, phytotoxicity rating (0-100), SORHA ([6]; 250 g ai/ha): 100
Pre-emerge Herbicidal Activity, phytotoxicity rating (0-100), CHEAL ([7]; 63 g ai/ha): 100
Pre-emerge Herbicidal Activity, phytotoxicity rating (0-100), CHEAL ([7]; 250 g ai/ha): 100
Pre-emerge Herbicidal Activity, phytotoxicity rating (0-100), DIGSA ([8]; 63 g ai/ha): 100
Pre-emerge Herbicidal Activity, phytotoxicity rating (0-100), DIGSA ([8]; 250 g ai/ha): 100
Pre-emerge Herbicidal Activity, phytotoxicity rating (0-100), CASOB ([9]; 63 g ai/ha): 100
Pre-emerge Herbicidal Activity, phytotoxicity rating (0-100), CASOB ([9]; 250 g ai/ha): 100
Pre-emerge Herbicidal Activity, phytotoxicity rating (0-100), ABUTH ([10]; 63 g ai/ha): 100
Pre-emerge Herbicidal Activity, phytotoxicity rating (0-100), ABUTH ([10]; 250 g ai/ha): 100
Pre-emerge phytotoxicity rating (0-100), crop damage, CORN ([11]; 63 g ai/ha): 60
Pre-emerge phytotoxicity rating (0-100), crop damage, CORN ([11]; 250 g ai/ha): 100
Pre-emerge phytotoxicity rating (0-100), crop damage, RICE ([12]; 63 g ai/ha): 95
Pre-emerge phytotoxicity rating (0-100), crop damage, RICE ([12]; 250 g ai/ha): 100
phytotoxicity rating ECHCG ([13]; 63 g ai/ha): 10
phytotoxicity rating ECHCG ([13]; 250 g ai/ha): 100
phytotoxicity rating AMBEL ([14]; 63 g ai/ha): 80
phytotoxicity rating AMBEL ([14]; 250 g ai/ha): 100
phytotoxicity rating SETVI ([15]; 63 g ai/ha): 50
phytotoxicity rating SETVI ([15]; 250 g ai/ha): 95
phytotoxicity rating IPOHE ([16]; 63 g ai/ha): 100
phytotoxicity rating IPOHE ([16]; 250 g ai/ha): 100
phytotoxicity rating SORHA ([17]; 63 g ai/ha): 20
phytotoxicity rating SORHA ([17]; 250 g ai/ha): 100
phytotoxicity rating CHEAL ([18]; 63 g ai/ha): 99
phytotoxicity rating CHEAL ([18]; 250 g ai/ha): 100
phytotoxicity rating DIGSA ([19]; 63 g ai/ha): 0
phytotoxicity rating DIGSA ([19]; 250 g ai/ha): 70
phytotoxicity rating AMARE ([20]; 63 g ai/ha): 100
phytotoxicity rating AMARE ([20]; 250 g ai/ha): 100
phytotoxicity rating CASOB ([21]; 63 g ai/ha): 100
phytotoxicity rating CASOB ([21]; 250 g ai/ha): 100
phytotoxicity rating ABUTH ([22]; 63 g ai/ha): 100
phytotoxicity rating ABUTH ([22]; 250 g ai/ha): 100
phytotoxicity rating CORN ([23]; 63 g ai/ha): 50
phytotoxicity rating CORN ([23]; 250 g ai/ha): 95
phytotoxicity rating RICE ([24]; 63 g ai/ha): 70
phytotoxicity rating RICE ([24]; 250 g ai/ha): 95
